Test results taken from US10869844B2, “Methods for the treatment of depression” (Janssen Pharmaceutica NV, priority 2014, dated 2020).
Like-named read-outs stand apart in the source and are kept apart here.

Test system: adult subjects with treatment resistant depression
Assay type: in vivo, human
Details: for Non-remitters % / Non-remitters No. / Remitters No. (MADRS total score 10) / Remitters % (MADRS total score 10): ketamine pooled 2x/week and 3x/week; for Duration of response, survival function estimate: Failure / Duration of response, survival function estimate: Survival: ketamine responders (Day 29), follow-up phase; for Response rates, Val/Val vs Met carriers: ketamine subjects
Source text: This was a double-blind, randomized, placebo-controlled, parallel arm study to assess the safety and efficacy of ketamine dosed 2 or 3 times weekly in adult subjects with treatment resistant depression. The study consisted of up to 4 phases: a screening phase of up to 4 weeks, a 4-week double-blind treatment phase (Day 1 to Day 29), an optional 2-week open label treatment phase, and a post treatment (follow up) phase of up to 3 weeks.
On Day 1 of the double-blind treatment phase, subjects were randomized to receive either i.v. infusions of placebo 2 times weekly or i.v. infusions of placebo 3 times weekly or i.v. infusions of ketamine 0.50 mg/kg, 2 times weekly or i.v. infusions of ketamine 0.50 mg/kg, 3 times weekly over 4 weeks.
Subjects who discontinued the double-blind treatment phase of the study due to lack of efficacy (based upon the clinical judgment of the investigator) after completion of the Day 15 visit, but prior to the Day 29 visit, may have received open-label ketamine treatment with the same dose frequency for an additional 2 weeks. After completing the Early Termination visit, the subject had study assessments as per the Time and Events Schedule for the optional open-label treatment phase followed by one follow up visit performed 1 week after the last dose of study medication.

[1] = Met carriers, DAY 03 or DAY 04, ketamine pooled 2x/wk and 3x/wk
[2] = Met carriers, DAY 08(DB), ketamine pooled 2x/wk and 3x/wk
[3] = Met carriers, DAY 15(DB), ketamine pooled 2x/wk and 3x/wk
[4] = Met carriers, DAY 29(DB), ketamine pooled 2x/wk and 3x/wk
[5] = Met carriers, Day 0 after Day 29
[6] = Met carriers, Day 10 after Day 29
[7] = Met carriers, Day 11 after Day 29
[8] = Val/Val, DAY 03 or DAY 04, ketamine pooled 2x/wk and 3x/wk
[9] = Val/Val, DAY 08(DB), ketamine pooled 2x/wk and 3x/wk
[10] = Val/Val, DAY 15(DB), ketamine pooled 2x/wk and 3x/wk
[11] = Val/Val, DAY 29(DB), ketamine pooled 2x/wk and 3x/wk

SMILES: CNC1(c2ccccc2Cl)CCCCC1=O (racemic) [Ketamine, ketamine]
- Subjects who remain well, number (Met carrier group, at Day 39, from 7): 4
- Day 29 responders who maintain response status during the follow-up phase, % (Met carriers (of 8)): 62.5%
- Day 29 responders who maintain response status during the follow-up phase, number (Met carriers (of 8)): 5
- Non-remitters % (Met carriers, DAY 03 or DAY 04): 100.0%
- Non-remitters No. (Met carriers, DAY 03 or DAY 04): 13
- Remitters No. (MADRS total score 10) (Met carriers, DAY 03 or DAY 04): 0
- MADRS total score change from baseline, Mean [1]: −6.85
- MADRS total score, Mean [1]: 25.92
- Non-responders % [1]: 92.3%
- Non-responders N [1]: 12
- Responders % (MADRS total score reduction ≥50%) [1]: 7.7%
- Responders N (MADRS total score reduction ≥50%) [1]: 1
- Non-remitters % (Met carriers, DAY 08(DB)): 72.7%
- Non-remitters No. (Met carriers, DAY 08(DB)): 8
- Remitters % (MADRS total score 10) (Met carriers, DAY 08(DB)): 27.3%
- Remitters No. (MADRS total score 10) (Met carriers, DAY 08(DB)): 3
- MADRS total score change from baseline, Mean [2]: −15.64
- MADRS total score, Mean [2]: 17.00
- Non-responders % [2]: 54.5%
- Non-responders N [2]: 6
- Responders % (MADRS total score reduction ≥50%) [2]: 45.5%
- Responders N (MADRS total score reduction ≥50%) [2]: 5
- Non-remitters % (Met carriers, DAY 15(DB)): 54.5%
- Non-remitters No. (Met carriers, DAY 15(DB)): 6
- Remitters % (MADRS total score 10) (Met carriers, DAY 15(DB)): 45.5%
- Remitters No. (MADRS total score 10) (Met carriers, DAY 15(DB)): 5
- MADRS total score change from baseline, Mean [3]: −17.45
- MADRS total score, Mean [3]: 15.18
- Non-responders % [3]: 45.5%
- Non-responders N [3]: 5
- Responders % (MADRS total score reduction ≥50%) [3]: 54.5%
- Responders N (MADRS total score reduction ≥50%) [3]: 6
- Non-remitters % (Met carriers, DAY 29(DB)): 33.3%
- Non-remitters No. (Met carriers, DAY 29(DB)): 3
- Remitters % (MADRS total score 10) (Met carriers, DAY 29(DB)): 66.7%
- Remitters No. (MADRS total score 10) (Met carriers, DAY 29(DB)): 6
- MADRS total score change from baseline, Mean [4]: −22.00
- MADRS total score, Mean [4]: 10.78
- Non-responders % [4]: 11.1%
- Non-responders N [4]: 1
- Responders % (MADRS total score reduction ≥50%) [4]: 88.9%
- Responders N (MADRS total score reduction ≥50%) [4]: 8
- Duration of response, survival function estimate: Failure [5]: 0
- Duration of response, survival function estimate: Survival [5]: 1.0000
- Duration of response, survival function estimate: Failure [6]: 0.2857
- Duration of response, survival function estimate: Survival [6]: 0.7143
- Duration of response, survival function estimate: Failure [7]: 0.4286
- Duration of response, survival function estimate: Survival [7]: 0.5714
- Day 29 responders who maintain response status during the follow-up phase, % (Val/Val (of 14)): 64.3%
- Day 29 responders who maintain response status during the follow-up phase, number (Val/Val (of 14)): 9
- Ketamine responders on Day 29, number (Val/Val and Met carriers together): 22
- Non-remitters % (Val/Val, DAY 03 or DAY 04): 95.2%
- Non-remitters No. (Val/Val, DAY 03 or DAY 04): 20
- Remitters % (MADRS total score 10) (Val/Val, DAY 03 or DAY 04): 4.8%
- Remitters No. (MADRS total score 10) (Val/Val, DAY 03 or DAY 04): 1
- MADRS total score change from baseline, Mean [8]: −12.67
- MADRS total score, Mean [8]: 22.29
- Non-responders % [8]: 71.4%
- Non-responders N [8]: 15
- Responders % (MADRS total score reduction ≥50%) [8]: 28.6%
- Responders N (MADRS total score reduction ≥50%) [8]: 6
- Non-remitters % (Val/Val, DAY 08(DB)): 80.0%
- Non-remitters No. (Val/Val, DAY 08(DB)): 16
- Remitters % (MADRS total score 10) (Val/Val, DAY 08(DB)): 20.0%
- Remitters No. (MADRS total score 10) (Val/Val, DAY 08(DB)): 4
- MADRS total score change from baseline, Mean [9]: −16.65
- MADRS total score, Mean [9]: 18.50
- Non-responders % [9]: 60.0%
- Non-responders N [9]: 12
- Responders % (MADRS total score reduction ≥50%) [9]: 40.0%
- Responders N (MADRS total score reduction ≥50%) [9]: 8
- Non-remitters % (Val/Val, DAY 15(DB)): 77.8%
- Non-remitters No. (Val/Val, DAY 15(DB)): 14
- Remitters % (MADRS total score 10) (Val/Val, DAY 15(DB)): 22.2%
- Remitters No. (MADRS total score 10) (Val/Val, DAY 15(DB)): 4
- MADRS total score change from baseline, Mean [10]: −18.50
- MADRS total score, Mean [10]: 16.11
- Non-responders % [10]: 33.3%
- Non-responders N [10]: 6
- Responders % (MADRS total score reduction ≥50%) [10]: 66.7%
- Responders N (MADRS total score reduction ≥50%) [10]: 12
- Non-remitters % (Val/Val, DAY 29(DB)): 35.3%
- Non-remitters No. (Val/Val, DAY 29(DB)): 6
- Remitters % (MADRS total score 10) (Val/Val, DAY 29(DB)): 64.7%
- Remitters No. (MADRS total score 10) (Val/Val, DAY 29(DB)): 11
- MADRS total score change from baseline, Mean [11]: −26.59
- MADRS total score, Mean [11]: 9.59
- Non-responders % [11]: 17.6%
- Non-responders N [11]: 3
- Responders % (MADRS total score reduction ≥50%) [11]: 82.4%
- Responders N (MADRS total score reduction ≥50%) [11]: 14
- Duration of response, survival function estimate: Failure (Val/Val, Day 0 after Day 29): 0
- Duration of response, survival function estimate: Survival (Val/Val, Day 0 after Day 29): 1.0000
- Duration of response, survival function estimate: Failure (Val/Val, Day 4 after Day 29): 0.1429
- Duration of response, survival function estimate: Survival (Val/Val, Day 4 after Day 29): 0.8571
- Duration of response, survival function estimate: Failure (Val/Val, Day 16 after Day 29): 0.2208
- Duration of response, survival function estimate: Survival (Val/Val, Day 16 after Day 29): 0.7792
- Duration of response, survival function estimate: Failure (Val/Val, Day 18 after Day 29): 0.3321
- Duration of response, survival function estimate: Survival (Val/Val, Day 18 after Day 29): 0.6679
- Duration of response, survival function estimate: Failure (Val/Val, Day 38 after Day 29): 1.0000
- Duration of response, survival function estimate: Survival (Val/Val, Day 38 after Day 29): 0
- Subjects who remain well, number (Val/Val, by Day 44, of 14): 12
- Reduction in MADRS total score, Val/Val vs Met carriers (ketamine pooled 2x/wk and 3x/wk, over time): Larger reductions in MADRS total score over most time points were observed in Val/Val carriers as compared to those Met carriers
- Response rates, Val/Val vs Met carriers (Day 3 or Day 4 and Day 15): response rates were higher on Day 3 or Day 4 and Day 15 in Val/Val subjects than in Met carriers
- Response rates, Val/Val vs Met carriers (Days 8 and 29): response rates were similar on Days 8 and 29
